# Data taken from paper PMC11659602, “Discovering covalent cyclic peptide inhibitors of peptidyl arginine deiminase 4 (PADI4) using mRNA-display with a genetically encoded electrophilic warhead” (Communications Chemistry, 2024).
# Values joined by “and” are separate entries in the source; they are usually repeats but may differ in a detail not shown here. Identical values can stand only once. Like-named read-outs stand apart in the source and are kept apart here. Where a SMILES comes first, the peptide text is derived from it. Bridges are numbered along the chain shown (N, C = ends). [ ]: non-standard residue; d: D form. Orn(fluoroacetimidoyl) = N=C(CF)NCCC[C@H](N)C(=O)O
# Target: T1, PADI4 (Homo sapiens, UniProt Q9UM07)
# T1 construct: His6; made in house
# T1 sequence (Q9UM07 whole entry): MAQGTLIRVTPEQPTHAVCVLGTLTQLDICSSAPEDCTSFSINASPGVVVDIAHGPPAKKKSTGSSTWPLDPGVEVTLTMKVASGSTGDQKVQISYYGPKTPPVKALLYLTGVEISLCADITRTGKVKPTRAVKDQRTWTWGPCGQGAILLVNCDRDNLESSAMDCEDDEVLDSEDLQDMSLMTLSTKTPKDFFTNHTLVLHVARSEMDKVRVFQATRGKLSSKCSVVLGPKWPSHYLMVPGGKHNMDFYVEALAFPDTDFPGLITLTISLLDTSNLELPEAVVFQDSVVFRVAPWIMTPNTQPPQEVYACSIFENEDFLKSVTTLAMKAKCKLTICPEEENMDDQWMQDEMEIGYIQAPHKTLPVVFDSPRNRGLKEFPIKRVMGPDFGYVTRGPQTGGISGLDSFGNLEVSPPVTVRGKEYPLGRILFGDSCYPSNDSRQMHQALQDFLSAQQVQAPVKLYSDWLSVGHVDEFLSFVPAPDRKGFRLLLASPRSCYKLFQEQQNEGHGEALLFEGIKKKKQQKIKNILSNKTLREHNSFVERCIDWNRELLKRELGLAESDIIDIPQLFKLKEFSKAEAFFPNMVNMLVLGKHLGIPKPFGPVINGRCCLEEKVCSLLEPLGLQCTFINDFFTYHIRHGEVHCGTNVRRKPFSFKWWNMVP
# Test: Incubation time-dependent COLDER assay IC50(t), Krippendorff fit
# Type: biochemical
# Conditions: for Ki / kinact: Krippendorff fit of IC50 vs time
# Protocol: To determine KI and kinact of covalent peptide inhibitors, COLDER assays were used[52]. Peptide dilutions were prepared using 5-fold dilutions from 500 µM and 300 µM to 0.8 µM and 2.4 µM, respectively, at 1% DMSO in COLDER buffer (50 mM HEPES, 150 mM NaCl and 2 mM DTT, pH 7.5). The 9 peptide dilutions were added to a 96-well plate, alongside a 1% DMSO control. An equal volume of 10 mM BAEE was added to each well and the solution was homogenised by pipette mixing. This was mixed with 50 nM His-PADI4, 0.6 mg/mL BSA and 10 mM CaCl2, in COLDER buffer, to bring the final volume to 300 µL in each well. Alternatively, His-PAD1 (100 nM) /His-PADI2 (100 nM) /His-PADI3 (250 nM) were used. For assays with PADI1 and PADI3, 10 mM N^α-benzoyl-L-arginine methyl […] (BAME) was used as the substrate instead of BAEE[48],[58],[59]. At 15-minute intervals, for 5 timepoints, 50 µL of solution was taken from each well and quenched with 10 µL EDTA (300 mM). 200 µL of COLDER solution containing 20 mM diacetyl monoxime/2,3-butanedione monoxime (Merck), 0.5 mM thiosemicarbazide (Acros Organics), 2.25 M H3PO4, 4.5 M H2SO4 and 1.5 mM NH4Fe(SO4)2.12H2O was added to each well. Samples were incubated for 20 min at 95 °C before measuring absorbance at 540 nm on a CLARIOstar Plus (BMG LABTECH). IC50 values for each time point were determined using non-linear regression with GraphPad Prism. Incubation time–dependent potency IC50(t) against incubation time was fitted to the Krippendorff equation (below) to determine KI and kinact using a Python script[53],[59]. […] IC50t=KI1+S/KM⋅2−2e^−ηIC50⋅kinact⋅t/ηIC50⋅kinact⋅t−1 WhereηIC50=IC50t/KI1+S/KM+IC50t
# [1] = 15 mins, replicates, read-out: apparent IC50
# [2] = 30 mins, replicates, read-out: apparent IC50
# [3] = 45 mins, replicates, read-out: apparent IC50
# [4] = 60 mins, replicates, read-out: apparent IC50
# [5] = 75 mins, replicates, read-out: apparent IC50
smiles,measurement,setting,value
"CC(C)C[C@@H]1NC(=O)[C@H](CCCCN)NC(=O)[C@H](CO)NC(=O)[C@H](CO)NC(=O)[C@H](Cc2ccc(O)cc2)NC(=O)[C@H](Cc2c[nH]cn2)NC(=O)[C@H](CCCNC(=N)CF)NC(=O)[C@H](CC(=O)O)NC(=O)[C@H](CC(C)C)NC(=O)[C@@H](Cc2ccc(O)cc2)NC(=O)CSC[C@@H](C(=O)NCC(N)=O)NC(=O)[C@H](Cc2ccc(O)cc2)NC1=O [cP4_15, yLD(2)HYSSKLYCG] ({CH2CO}-[dY]LD[Orn(fluoroacetimidoyl)]HYSSKLYCG-NH2; thioether N-12)",kinact/KI,,3550 M⁻¹ s⁻¹
same,IC50,"60-minute time point, no preincubation, read-out: PADI4 IC50",850 nM
same,IC50,[1],4150 nM and 3690 nM and 2680 nM
same,IC50,[2],1490 nM and 1390 nM and 1520 nM
same,IC50,[3],996 nM and 1150 nM and 1210 nM
same,remaining activity at 0.048 µM,"1 h, 0.048 µM, quenched after 60 mins, read-out: PADI4 activity normalised to 0.1% DMSO",98.8%
same,remaining activity at 0.08 µM,"1 h, 0.08 µM, quenched after 60 mins, read-out: PADI4 activity normalised to 0.1% DMSO",93.4%
same,remaining activity at 0.24 µM,"1 h, 0.24 µM, quenched after 60 mins, read-out: PADI4 activity normalised to 0.1% DMSO",87.8%
same,remaining activity at 0.4 µM,"1 h, 0.4 µM, quenched after 60 mins, read-out: PADI4 activity normalised to 0.1% DMSO",76.7%
same,remaining activity at 1.2 µM,"1 h, 1.2 µM, quenched after 60 mins, read-out: PADI4 activity normalised to 0.1% DMSO",35.6%
same,remaining activity at 2 µM,"1 h, 2 µM, quenched after 60 mins, read-out: PADI4 activity normalised to 0.1% DMSO",23.1%
same,remaining activity at 6 µM,"1 h, 6 µM, quenched after 60 mins, read-out: PADI4 activity normalised to 0.1% DMSO",12.5%
same,remaining activity at 10 µM,"1 h, 10 µM, quenched after 60 mins, read-out: PADI4 activity normalised to 0.1% DMSO",7.1%
same,IC50,[4],809 nM and 775 nM and 965 nM
same,IC50,[5],752 nM and 784 nM and 780 nM
same,Ki,,780 ± 60 nM
same,kinact,,0.00283 s⁻¹
"N=C(N)NCCC[C@@H]1NC(=O)[C@H](CCCNC(=N)CF)NC(=O)[C@H](CC(=O)O)NC(=O)[C@H](Cc2ccc(O)cc2)NC(=O)[C@H](CCCCN)NC(=O)[C@H](CO)NC(=O)[C@@H](Cc2ccc(O)cc2)NC(=O)CSC[C@@H](C(=O)NCC(N)=O)NC(=O)[C@H](CC(=O)O)NC(=O)[C@H](CCCNC(=N)N)NC(=O)[C@@H]2CCCN2C(=O)[C@H](CO)NC1=O [cP4_4, ySKYD(2)RSPRDCG] ({CH2CO}-[dY]SKYD[Orn(fluoroacetimidoyl)]RSPRDCG-NH2; thioether N-12)",kinact/KI,,1230 M⁻¹ s⁻¹
same,IC50,[1],8810 nM and 8730 nM and 8280 nM
same,IC50,[2],4670 nM and 4780 nM and 4310 nM
same,IC50,[3],3420 nM and 4190 nM and 3180 nM
same,IC50,[4],3080 nM and 3100 nM and 2670 nM
same,IC50,[5],2720 nM and 2530 nM and 2470 nM
same,Ki,,1900 ± 100 nM
same,kinact,,0.00217 s⁻¹
same,"PADI4 activity, normalised (Figure S11c)",cP4_4 0.08 µM,98.2718 and 96.1223 and 99.8314
same,"PADI4 activity, normalised (Figure S11c)",cP4_4 0.24 µM,93.4756 and 94.2113
same,"PADI4 activity, normalised (Figure S11c)",cP4_4 0.4 µM,100.554 and 87.7482
same,"PADI4 activity, normalised (Figure S11c)",cP4_4 1.2 µM,75.0589 and 75.4411 and 70.326
same,"PADI4 activity, normalised (Figure S11c)",cP4_4 2 µM,67.2548 and 61.3338
same,"PADI4 activity, normalised (Figure S11c)",cP4_4 6 µM,29.9549 and 26.3769
same,"PADI4 activity, normalised (Figure S11c)",cP4_4 10 µM,22.5225 and 20.5991 and 19.0146
same,"PADI4 activity, normalised (Figure S11c)",cP4_4 30 µM,7.3132 and 8.5351 and 5.9198
same,"PADI4 activity, normalised (Figure S11c)",cP4_4 50 µM,3.0999 and 5.4575 and 3.9528
